Results taken from patent US20070202577A1, “Method For The Production Of Hyperbranched Polysaccharide Fractions” (priority 2004, published 2007).

Target: T1, α-amylase from porcine pancreas (Sus scrofa, UniProt P00690)
T1 sequence (P00690 16-511): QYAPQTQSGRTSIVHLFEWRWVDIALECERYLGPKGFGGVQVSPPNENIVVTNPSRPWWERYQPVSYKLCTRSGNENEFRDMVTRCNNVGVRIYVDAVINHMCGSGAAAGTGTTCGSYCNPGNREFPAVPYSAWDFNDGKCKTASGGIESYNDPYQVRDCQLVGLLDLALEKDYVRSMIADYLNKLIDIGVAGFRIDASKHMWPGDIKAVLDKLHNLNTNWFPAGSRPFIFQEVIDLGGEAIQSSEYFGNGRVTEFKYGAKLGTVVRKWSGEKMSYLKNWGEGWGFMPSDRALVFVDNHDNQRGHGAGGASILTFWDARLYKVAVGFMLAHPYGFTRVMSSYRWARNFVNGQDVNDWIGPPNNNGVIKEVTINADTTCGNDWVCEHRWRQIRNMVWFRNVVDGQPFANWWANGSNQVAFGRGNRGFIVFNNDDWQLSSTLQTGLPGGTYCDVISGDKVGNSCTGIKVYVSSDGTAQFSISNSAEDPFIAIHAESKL
Protocol: The solution was heated to 37.0° C., and 0.5 I.U./ml α-amylase from porcine pancreas (from Roche; AS, Art. No. 102 814) was added. Samples were taken after 1 and 3 hours, the enzyme was inactivated by heat, and the molecular weight of the remaining high molecular weight fraction was determined by HPGPC.

What does the source list for hydroxyethyl starch [Voluven]?
rate of degradation with α-amylase, compared with the hyperbranched amylopectin fraction from example 7: comparable; initial weight average molecular weight (pH 7.2): 140 200 daltons; weight average molecular weight after hydrolysis for 1 hour (pH 7.2): 54 700 daltons; weight average molecular weight after hydrolysis for 3 hours (pH 7.2): 33 700 daltons
